Reference: US11643405B2, “Compound for treatment or prevention of liver diseases” (JIANGSU ATOM BIOSCIENCE AND PHARMACEUTICAL CO., LTD., priority 2018, dated 2023)
Values after ≈ are worked out from the molar mass of the structure shown. Where two headings read alike, the source gives them in different places.

Key:
[1] = Determination of compound solubility in PBS buffer (LC-MS/MS); format: physicochemical; settings: for solubility at 2 h: PBS buffer, aqueous buffer, kinetic from dmso stock, stirred 2 hours, read-out: Solubility
Procedure: The test compounds were 7, 67 and 85, respectively; the control compound was silymarin, purchased from Shanghai Dibai Biotechnology Co., Ltd., with the batch number HH06. Both the test compounds and the control compound were prepared into 10 mM stock solutions using DMSO. Phosphate buffered saline (PBS), with pH of 4.0 and 7.4, was used to test the solubility of the test compounds.
Treatment of test compound and control compound: 30 μL of test compound or control compound stock solution (10 mM) per well was added in a specially made solubility sample plate, and then 970 μL of PBS with different pH was added to each well (pH was 4.0 and 7.4, respectively). Repeated wells were set in the test. A stir bar was added to each well that was covered with a polytetrafluoroethylene or silica gel plug. Stirring was performed at 25° C. at 1100 rpm for 2 hours. 10 μL of sample was taken from each well, and then 990 μL of water and acetonitrile mixture (including internal standard substance) was added to mix well, followed by filtering with a filter plate.
Standard treatment: 10 mM stock solution was diluted with DMSO to 300 μM, then 10 μL of compound diluent was taken, and 990 μL of water and acetonitrile mixture (including internal standard substance) was added to mix well and formulated into a standard solution with the final concentration 3 μM.
The solubility sample plate was placed in the autosampler and the LC-MS/MS method was used for analysis. The concentration of the test compound was calculated by the response value of the test compound and standard, and the concentration of the standard.

NASH mice = assay: Efficacy on non-alcoholic steatohepatitis (NASH) mice fed high-fat feed; format: in vivo, C57BL/6 mice; settings: for Liver coefficient (liver weight/body weight) / Liver weight: 28 days; for Liver weight: X ± SD
Procedure: The test compounds were 4 and 7, respectively; the positive control silymarin was purchased from Shanghai Dibai Biotechnology Co., Ltd., with the batch number HH06.
Low-dose group (35 mg/kg) solution preparation: the quantitative test compound was precisely weighed and a certain amount of normal saline was added to prepare the oral suspension solution with the concentration of 3.5 mg/mL. The administration volume was 10 mL/kg.
High-dose group (70 mg/kg) solution preparation: the quantitative test compound was precisely weighed and a certain amount of normal saline was added to prepare the oral suspension solution with the concentration of 7.0 mg/mL. The administration volume was 10 mL/kg.
High-fat feed: basic feed ingredients were corn, flour, imported fish meal, soybean meal, secondary meal, yeast meal, soybean oil, etc. The high-fat feed was prepared from 73.6% basic feed with 10% lard, 10% egg yolk powder, 5% sucrose, 1.2% cholesterol and 0.2% pig bile salt.
Source, species, strain: C57BL/6 mice, provided by Beijing Vital River Laboratory Animal Technology Co., Ltd. Nanjing Branch (experimental animal production license: SCXK (Su) 2016-0003); experimental animal use license: SYXK (Jun) 2012-0049; age: 6-8 weeks at the beginning of dosing; weight: 18-22 g; gender: half male and half female.
After 3 days of adaptive feeding with normal feed, the mice were randomly assigned according to body weight: 8 mice were fed with normal feed and set as normal control (NC); the rest of mice were fed with high-fat feed until the end of the experiment. The mice were weighed and recorded every 3 days. After feeding with high-fat diet for 56 days (8 weeks), blood samples were collected from the orbital vein of mice to detect the blood biochemical indexes to identify whether the modelling was successful.
After successful modeling, the mice in the high-fat feed group were randomly divided into 6 groups with 8 animals in each group, including model group, compound 4 low dose group, compound 4 high dose group, compound 7 low dose group, compound 7 high dose group and silymarin high-dose group. The mice in each group were administered intragastrically according to the animal's body weight every day for 28 consecutive days (4 weeks). At the same time, during the administration period, the mice in each administration group and model group continued to be fed with high-fat feed until the end of the experiment. The normal control group was administered the corresponding volume of normal saline.
On the last day of the experiment, the mice in each group were fasted for 8 hours, blood was taken from the orbit and the serum was separated and then stored at −20° C. After blood collection, the mice were sacrificed and the liver was quickly separated, weighed and stored in a refrigerator at −80° C. Serum samples and liver tissue samples were subjected to determinations of serum triglyceride (TG), serum total cholesterol (TC), serum high-density lipoprotein (HDL-C), serum low-density lipoprotein (LDL-C), serum alanine aminotransferase (ALT), serum aspartate aminotransferase (AST), serum tumor necrosis factor alpha (TNFα), liver triglycerides (TG), liver total cholesterol (TC), liver malondialdehyde (MDA), liver superoxide dismutase (SOD); in addition, some livers of mice in the blank control group, model group, compound 7 low-dose group and silymarin high-dose group were fixed in neutral formaldehyde fixed solution and then HE staining was performed to analyzed the pathological changes of liver tissue.

COc1cc(C2Oc3cc(C4Oc5cc(O)cc(O)c5CC4O)cc(O)c3OC2CO)ccc1O (stereo not shown) [Compound 7, 2-{8-hydroxy-3-(4-hydroxy-3-methoxyphenyl)-2-hydroxymethyl-2,3-dihydrobenzo[b][1,4]dioxan-6-yl}chroman-3,5,7-triol]
solubility at 2 h ([1]; PBS pH = 4.0, 25° C.): 209 µM (≈ 101 µg/mL) | solubility at 2 h ([1]; PBS pH = 7.4, 25° C.): 214 µM (≈ 104 µg/mL) | Solubility in PBS buffer solution compared with silymarin (in words) ([1]; pH 4.0 and 7.4): significantly higher than that of silymarin | TG (NASH mice; 35 mg/kg/day): 1.22 ± 0.06 mmol/L | Liver coefficient (liver weight/body weight) (NASH mice; 35 mg/kg/day intragastric): 4.53 ± 0.38 % | Liver weight (NASH mice; 35 mg/kg/day intragastric): 1.40 ± 0.05 g | TG (NASH mice; 70 mg/kg/day): 1.25 ± 0.06 mmol/L | Liver coefficient (liver weight/body weight) (NASH mice; 70 mg/kg/day intragastric): 4.51 ± 0.28 % | Liver weight (NASH mice; 70 mg/kg/day intragastric): 1.41 ± 0.02 g | Therapeutic effect on non-alcoholic steatohepatitis in mice (in words) (NASH mice; 35 and 70 mg/kg): significant therapeutic effects | MDA (NASH mice; liver, 35 mg/kg/day): 2.84 ± 0.24 nmol/mg | SOD (NASH mice; liver, 35 mg/kg/day): 18.54 ± 4.41 U/mg | TC (NASH mice; liver, 35 mg/kg/day): 1.53 ± 0.06 mmol/L | MDA (NASH mice; liver, 70 mg/kg/day): 2.79 ± 0.21 nmol/mg | SOD (NASH mice; liver, 70 mg/kg/day): 19.44 ± 3.11 U/mg | TC (NASH mice; liver, 70 mg/kg/day): 1.54 ± 0.09 mmol/L | Liver histopathology (HE staining) (NASH mice; low-dose group (35 mg/kg)): no lipid droplet vacuoles caused by steatosis | ALT (NASH mice; serum, 35 mg/kg/day): 63.03 ± 30.59 U/L | AST (NASH mice; serum, 35 mg/kg/day): 115.16 ± 13.42 U/L | HDL-C (NASH mice; serum, 35 mg/kg/day): 0.83 ± 0.35 mmol/L | LDL-C (NASH mice; serum, 35 mg/kg/day): 1.95 ± 0.50 mmol/L | TC (NASH mice; serum, 35 mg/kg/day): 2.59 ± 0.38 mmol/L | TG (NASH mice; serum, 35 mg/kg/day): 1.13 ± 0.06 mmol/L | TNF-α (NASH mice; serum, 35 mg/kg/day): 414.26 ± 11.57 ng/L | ALT (NASH mice; serum, 70 mg/kg/day): 75.75 ± 27.48 U/L | AST (NASH mice; serum, 70 mg/kg/day): 123.61 ± 5.41 U/L | HDL-C (NASH mice; serum, 70 mg/kg/day): 0.89 ± 0.46 mmol/L | LDL-C (NASH mice; serum, 70 mg/kg/day): 1.85 ± 0.37 mmol/L | TC (NASH mice; serum, 70 mg/kg/day): 2.63 ± 0.81 mmol/L | TG (NASH mice; serum, 70 mg/kg/day): 1.11 ± 0.07 mmol/L | TNF-α (NASH mice; serum, 70 mg/kg/day): 425.80 ± 9.77 ng/L
